Experimental data published in patent US10842152B2, “Isothiazolo-based bicycles, processes for their preparation and their use as herbicides and/or plant growth regulators” (Bayer CropScience Aktiengesellschaft, priority 2017, dated 2020).

What was measured:
[1] = system: Alopecurus myosuroides; experiment: Herbicidal effect pre-emergence; format: in vivo; conditions: 320 g/ha, visual grading after ca. 3 weeks vs untreated controls
From the text: (§1) Herbicidal activities of the compounds of the formulae (G1) or (G2) according to the invention were investigated against the following harmful plants: • ALOMY=Alopecurus myosuroides • ECHCG=Echinochloa crus-galli • SETVI=Setaria viridis • ABUTH=Abutilon theophrasti • AMARE=Amaranthus retroflexus • PHBPU=Pharbitis purpurea • POLCO=Polygonum convolvulus (=Fallopia convolvulus) • STEME=Stellaria media • VIOTR=Viola tricolor
(§2) Seeds of mono- and dicotyledonous weed plants and crop plants are sown in wood-fiber pots in sandy loam and covered with soil. The compounds according to the invention, formulated in the form of wettable powders (WP) or as emulsifiable concentrates (EC), are then applied to the surface of the covering soil as aqueous suspension or emulsion, with the addition of 0.5% of an additive, at an application rate of 600 l of water/ha (converted).
(§3) Following treatment, the pots are placed in a greenhouse and kept under optimum growth conditions for the test plants. The visual grading of the damage to the test plants is carried out after ca. 3 weeks in comparison to untreated controls (herbicidal effect in percent (%): 100% effect=plants have died off, 0% effect=as control plants).

[2] = system: Amaranthus retroflexus; experiment: Herbicidal effect pre-emergence; format: in vivo; conditions: 320 g/ha, visual grading after ca. 3 weeks vs untreated controls
From the text: as §1, §2, §3

[3] = system: Setaria viridis; experiment: Herbicidal effect pre-emergence; format: in vivo; conditions: 320 g/ha, visual grading after ca. 3 weeks vs untreated controls
From the text: as §1, §2, §3

[4] = system: Stellaria media; experiment: Herbicidal effect pre-emergence; format: in vivo; conditions: 320 g/ha, visual grading after ca. 3 weeks vs untreated controls
From the text: as §1, §2, §3

[5] = system: Viola tricolor; experiment: Herbicidal effect pre-emergence; format: in vivo; conditions: 320 g/ha, visual grading after ca. 3 weeks vs untreated controls
From the text: as §1, §2, §3

[6] = system: MATIN; experiment: Herbicidal effect pre-emergence; format: in vivo, Matricaria inodora; conditions: 320 g/ha, visual grading after ca. 3 weeks vs untreated controls
From the text: as §2, §3

[7] = system: Amaranthus retroflexus; experiment: Herbicidal effect post-emergence; format: in vivo; conditions: 320 g/ha
From the text: as §1
(§4) Seeds of mono- and dicotyledonous weed plants and crop plants are sown in wood-fiber pots in sandy loam, covered with soil and grown in a greenhouse under controlled growth conditions. 2 to 3 weeks after sowing, the test plants are sprayed in the single-leaf stage. The compounds according to the invention, formulated in form of wettable powders (WP) or as emulsifiable concentrates (EC), are then sprayed onto the green plant parts as aqueous suspension or emulsion, with the addition of 0.5% of an additive, at an application rate of 600 l of water/ha (converted). After the test plants had been in the greenhouse for ca. 3 weeks under optimum growth conditions, the effect of the preparations is assessed visually in comparison with untreated controls (herbicidal effect in percent (%): 100% effect=plants have died off, 0% effect=as control plants).

[8] = system: Setaria viridis; experiment: Herbicidal effect post-emergence; format: in vivo; conditions: 320 g/ha
From the text: as §1, §4

[9] = system: Viola tricolor; experiment: Herbicidal effect post-emergence; format: in vivo; conditions: 320 g/ha
From the text: as §1, §4

[10] = system: Pharbitis purpurea; experiment: Herbicidal effect post-emergence; format: in vivo; conditions: 320 g/ha, visual grading after ca. 3 weeks (Table 7)
From the text: as §1, §4

[11] = system: Polygonum convolvulus (=Fallopia convolvulus); experiment: Herbicidal effect post-emergence; format: in vivo; conditions: 320 g/ha, visual grading after ca. 3 weeks (Table 7)
From the text: as §1, §4

[12] = system: Stellaria media; experiment: Herbicidal effect post-emergence; format: in vivo; conditions: 320 g/ha, visual grading after ca. 3 weeks (Table 7)
From the text: as §1, §4

[13] = system: MATIN; experiment: Herbicidal effect post-emergence; format: in vivo, Matricaria inodora; conditions: 320 g/ha, visual grading after ca. 3 weeks (Table 7)
From the text: as §4

[14] = visual grading after ca. 3 weeks (Table 9)
[15] = visual grading after ca. 3 weeks (Table 7)

Row | Compound | herbicidal effect ALOMY [1] | herbicidal effect AMARE [2] | herbicidal effect SETVI [3] | herbicidal effect STEME [4] | herbicidal effect VIOTR [5] | herbicidal effect MATIN [6] | herbicidal effect AMARE [7, 14] | herbicidal effect SETVI [8, 14] | herbicidal effect VIOTR [9, 14] | herbicidal effect AMARE [7, 15] | herbicidal effect PHBPU [10] | herbicidal effect POLCO [11] | herbicidal effect SETVI [8, 15] | herbicidal effect STEME [12] | herbicidal effect VIOTR [9, 15] | herbicidal effect MATIN [13]
1 | Nc1nsc2c(=O)n(CC3CCCCC3)cc(Br)c12 [Example I-054, 3-amino-4-bromo-6-(cyclohexylmethyl)isothiazolo[5,4-c]pyridin-7-one] | 90% | 100% | 100% | 100% | 100% | 100% | 100% | 100% | 100% | – | – | – | – | – | – | –
2 | O=C(Nc1nsc2c(=O)n(Cc3cc(F)c(F)cc3F)cc(F)c12)C(F)F [Example I-165] | 100% | 100% | 100% | 100% | 100% | 100% | – | – | – | 100% | 80% | 100% | 90% | 100% | 100% | 100%
3 | O=C(Nc1nsc2c(=O)n(CC3CCCCC3Cl)cc(Cl)c12)C(F)F (racemic) [Example I-160] | 100% | 100% | 100% | 100% | 100% | 100% | – | – | – | 100% | 100% | 100% | 100% | 100% | 100% | 80%
4 | O=C(Nc1nsc2c(=O)n(CC3CCCCC3Cl)cc(Cl)c12)C(F)(F)F (racemic) [Example I-171] | 100% | 100% | 100% | 100% | 100% | 100% | – | – | – | 100% | 100% | 100% | 100% | 100% | 100% | 90%
5 | O=C(Nc1nsc2c(=O)n(CC3CCCCC3)cc(Br)c12)C(F)(F)C(F)(F)F [Example I-077] | 100% | 100% | 100% | 100% | 100% | 90% | 100% | 90% | 90% | – | – | – | – | – | – | –
6 | COCc1cc2c(N)nsc2c(=O)n1CC1CCCCC1 [Example I-028] | 90% | 90% | 100% | 100% | 100% | 90% | – | – | – | – | – | – | – | – | – | –
7 | CCC(=O)Nc1nsc2c(=O)n(CC3CCCCC3)c(CO)cc12 [Example I-048] | 80% | 100% | 100% | 100% | 100% | 90% | 100% | 100% | 100% | – | – | – | – | – | – | –
8 | CCC(=O)Nc1nsc2c(=O)n(CC3CCCCC3)c(CC)cc12 [Example I-029] | 90% | 100% | 90% | 90% | 100% | 90% | – | – | – | – | – | – | – | – | – | –
9 | CC(C)(C)OC(=O)OC1CN(CC2CCCCC2)C(=O)c2snc(N)c21 (stereo not drawn) [Example I-138] | 100% | 100% | 100% | 100% | 100% | 90% | 100% | 80% | 100% | – | – | – | – | – | – | –
10 | CCC(=O)N(C(=O)CC)c1nsc2c(=O)n(CC3CCCCC3)cc(Br)c12 [Example I-079] | – | 100% | 100% | – | 100% | – | 100% | 90% | 100% | – | – | – | – | – | – | –
11 | O=C(Nc1nsc2c(=O)n(CC3CCCCC3)cc(Cl)c12)C(F)(F)F [Example I-086] | 100% | 100% | 100% | 100% | 100% | 100% | 100% | 100% | 100% | – | – | – | – | – | – | –
12 | O=C(Nc1nsc2c(=O)n(CC3CCCCC3)c(CO)cc12)C(F)(F)C(F)(F)F [Example I-047] | 80% | 100% | 90% | 100% | 100% | 90% | 90% | 90% | 100% | – | – | – | – | – | – | –
13 | O=C(Nc1nsc2c(=O)n(CC3CCCCC3)cc(Br)c12)C(F)(F)F [Example I-088] | 100% | 100% | 100% | 100% | 100% | 100% | 100% | 100% | 100% | – | – | – | – | – | – | –
14 | CC(C)c1cc2c(N)nsc2c(=O)n1CC1CCCCC1 [Example I-023, 3-amino-6-(cyclohexylmethyl)-5-isopropyl-isothiazolo[5,4-c]pyridin-7-one] | – | 100% | 90% | – | 90% | – | 100% | 90% | 100% | – | – | – | – | – | – | –
15 | Nc1nsc2c(=O)n(CC3CCCCC3)c(CO)cc12 [Example I-036] | – | 100% | 90% | – | 80% | – | 90% | 100% | 100% | – | – | – | – | – | – | –
16 | O=C(Nc1nsc2c(=O)n(CC3CCCCC3)cc(Cl)c12)C(F)(F)C(F)(F)F [Example I-081] | 100% | 100% | 100% | 100% | 100% | 100% | 100% | 100% | 100% | – | – | – | – | – | – | –
17 | N#Cc1cn(CC2CCCCC2)c(=O)c2snc(N)c12 [Example I-135] | – | 100% | 100% | – | 100% | – | 100% | 90% | 100% | – | – | – | – | – | – | –
